Experimental data reported in PubChem BioAssay (NCI).
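Cultured in 96-well plates, cells were exposed to test compound for 48 hours across five concentrations. GI50 = concentration required for 50% inhibition of growth. At the TGI there is no net growth.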

Experiments:
Test in all cases: NCI anticancer screen, dose series, 48 h; in the data active = GI50 below about 0.43 µM; inactive = the rest
[1] = system: SK-MEL-28 melanoma
[2] = system: SW-620 colon
[3] = system: HCC-2998 colon
[4] = system: T-47D breast
[5] = system: RPMI-8226 leukemia
[6] = system: RXF 393 renal
[7] = system: NCI-H226 lung
[8] = system: OVCAR-8 ovarian
[9] = system: HCT-116 colon
[10] = system: SK-MEL-2 melanoma
[11] = system: 786-0 renal
[12] = system: A498 renal
[13] = system: UO-31 renal
[14] = system: SF-295 CNS
[15] = system: LOX IMVI melanoma
[16] = system: OVCAR-5 ovarian
[17] = system: SNB-19 CNS
[18] = system: BT-549 breast
[19] = system: MCF7 breast
[20] = system: COLO 205 colon
[21] = system: HOP-62 NSCLC
[22] = system: NCI-H23 lung
[23] = system: MDA-MB-435
[24] = system: HCT-15 colon
[25] = system: SNB-75 CNS
[26] = system: SK-MEL-5 melanoma
[27] = system: CCRF-CEM leukemia
[28] = system: SR leukemia
[29] = system: SN12C renal
[30] = system: PC-3 prostate
[31] = system: UACC-257 melanoma
[32] = system: UACC-62 melanoma
[33] = system: M14 melanoma
[34] = system: HOP-92 NSCLC
[35] = system: KM12 colon
[36] = system: MOLT-4 leukemia
[37] = system: MALME-3M melanoma
[38] = system: OVCAR-4 ovarian
[39] = system: NCI-H460 lung
[40] = system: SF-268 CNS
[41] = system: K-562 leukemia
[42] = system: OVCAR-3 ovarian
[43] = system: ACHN renal
[44] = system: EKVX NSCLC
[45] = system: CAKI-1 renal
[46] = system: MDA-MB-468 breast
[47] = system: NCI/ADR-RES ovarian
[48] = system: SF-539 CNS
[49] = system: NCI-H522 lung
[50] = system: HT29 colon
[51] = system: DU-145 prostate
[52] = system: TK-10 renal
[53] = system: A549 NSCLC
[54] = system: MDA-MB-231 breast
[55] = system: HS 578T breast
[56] = system: U251 CNS
[57] = system: HL-60(TB) leukemia
[58] = system: SK-OV-3 ovarian
[59] = system: IGROV1 ovarian

CCOC(=O)c1ccc(NC(=O)CSC(CC(=O)c2sc(Nc3ccccn3)nc2C)c2ccccc2F)cc1 (stereo not drawn)
48.8 µM: TGI [25]
inactive: GI50 [1] 38.7 µM | GI50 [2] 75.3 µM | GI50 [3] 23.1 µM | GI50 [4] 18 µM | GI50 [5] 8.29 µM | GI50 [6] 2590 nM | GI50 [7] 2520 nM | GI50 [8] 53.6 µM | GI50 [9] 23 µM | GI50 [10] 44.9 µM | GI50 [11] 24.8 µM | GI50 [12] 69.2 µM | GI50 [13] 3.19 µM | GI50 [14] 32.2 µM | GI50 [16] 74.4 µM | GI50 [17] 36.9 µM | GI50 [18] 14.7 µM | GI50 [19] 15.4 µM | GI50 [20] > 100 µM | GI50 [21] 37.5 µM | GI50 [22] 22.7 µM | GI50 [23] 26.3 µM | GI50 [24] 25.8 µM | GI50 [25] 3.59 µM | GI50 [26] 18.6 µM | GI50 [27] 18.6 µM | GI50 [28] 24.1 µM | GI50 [29] 28 µM | GI50 [30] 23.8 µM | GI50 [31] 38.4 µM | GI50 [32] 16.1 µM | GI50 [33] 19.4 µM | GI50 [34] 12.5 µM | GI50 [35] 55.6 µM | GI50 [36] 32.2 µM | GI50 [37] 25.4 µM | GI50 [38] 66.1 µM | GI50 [39] 31.2 µM | GI50 [40] 43.1 µM | GI50 [41] 30.4 µM | GI50 [42] 31.7 µM | GI50 [43] 45.6 µM | GI50 [44] 19 µM | GI50 [45] 11.5 µM | GI50 [46] 4.24 µM | GI50 [47] 24.1 µM | GI50 [48] 32.5 µM | GI50 [49] 21.6 µM | GI50 [50] 58.3 µM | GI50 [51] 67.2 µM | GI50 [52] 82.3 µM | GI50 [53] 75.7 µM | GI50 [54] 19.3 µM | GI50 [55] 14.9 µM | GI50 [56] 47.8 µM | GI50 [57] 21.4 µM | GI50 [58] 26 µM | GI50 [59] 12.1 µM
83.3 µM: TGI [59]
active: GI50 [15] 312 nM
> 100 µM: TGI [1] | TGI [2] | TGI [3] | TGI [4] | TGI [5] | TGI [8] | TGI [9] | TGI [10] | TGI [11] | TGI [12] | TGI [13] | TGI [14] | TGI [15] | TGI [16] | TGI [17] | TGI [19] | TGI [20] | TGI [21] | TGI [22] | TGI [23] | TGI [24] | TGI [27] | TGI [28] | TGI [29] | TGI [30] | TGI [31] | TGI [32] | TGI [33] | TGI [34] | TGI [35] | TGI [36] | TGI [37] | TGI [38] | TGI [39] | TGI [40] | TGI [41] | TGI [42] | TGI [43] | TGI [44] | TGI [45] | TGI [47] | TGI [48] | TGI [49] | TGI [50] | TGI [51] | TGI [52] | TGI [53] | TGI [54] | TGI [56] | TGI [57] | TGI [58]
44.3 µM: TGI [46]
81.5 µM: TGI [18]
94.8 µM: TGI [55]
82 µM: TGI [26]
23.5 µM: TGI [6]
85.9 µM: TGI [7]
